Common to all, as to experiment: minimum inhibitory concentration (MIC), series dilution on Iso-Sensitest agar
Common to all, as to format: cell-based

One experiment concerns Staph 48N. The settings on record: 37° C., about 20 hours, about 10^4 colony-forming particles per point. The protocol: (§1) The minimum inhibitory concentrations (MIC) were determined by the series dilution method on Iso-Sensitest agar (Oxoid). A series of agar plates which contained concentration of the active compound which decreased by two-fold dilution in each case was prepared for each test substance. The agar plates were inoculated with a Multipoint inoculator (Denley). Overnight cultures of the pathogens which had been diluted beforehand such that each inoculation point contained about 10^4 colony-forming particles were used for the inoculation. The inoculated agar plates were incubated at 37° C. and the germ growth was read off alter about 20 hours. The MIC value (μg/ml) indicates the lowest concentration of active compound at which no growth was detectable with the naked eye.

Another experiment concerns Staph 25701. The conditions noted are these: 37° C., about 20 hours, about 10^4 colony-forming particles per point. As for the experimental part: as §1
The next experiment concerns Staph 133. The conditions noted are these: 37° C., about 20 hours, about 10^4 colony-forming particles per point. As for the experimental part:
as §1

For a further experiment, the system named is Klebs. 57 USA. The settings on record: 37° C., about 20 hours, about 10^4 colony-forming particles per point. As for the experimental part: as §1
The subject of another experiment is E. coli Neumann. The settings on record: Escherichia coli, 37° C., about 20 hours, about 10^4 colony-forming particles per point. As for the experimental part:
as §1

Another experiment deals with Staph 9TV. The conditions noted are these: 37° C., about 20 hours, about 10^4 colony-forming particles per point. The protocol:
as §1

The next experiment has as its system Psdm. Bonn. The conditions noted are these: 37° C., about 20 hours, about 10^4 colony-forming particles per point. As for the experimental part:
as §1

This note sets out measurements from patent publication US5698574A, “5-membered heteroaryl-oxazolidinones” (Bayer Aktiengesellschaft, priority 1994, dated 1997).

≈ marks a conversion by molar mass, not a printed value.

Broadly, the MIC is the least concentration at which growth counts as inhibited. A higher MIC goes with weaker potency.

On to `CC(=O)NC[C@H]1CN(c2cc3cc(Br)ccc3s2)C(=O)O1` [Example 22], for which the MIC is 2 µg/mL (≈ 5.42 µM) with Staph 48N; 1 µg/mL (≈ 2.71 µM) against Staph 25701; 4 µg/mL (≈ 10.8 µM) against Staph 133; over 32 µg/mL against Klebs. 57 USA; over 32 µg/mL against E. coli Neumann; 2 µg/mL (≈ 5.42 µM) in the experiment with Staph 9TV. The MIC in the experiment on Psdm. Bonn was over 32 µg/mL.
Regarding `CC(=O)NC[C@H]1CN(c2cc(Br)cs2)C(=O)O1` [Example 26], the MIC is 8 µg/mL (≈ 25.1 µM) against Staph 48N; 8 µg/mL (≈ 25.1 µM) against Staph 25701; 8 µg/mL (≈ 25.1 µM) in the experiment with Staph 133; over 32 µg/mL against Klebs. 57 USA; over 32 µg/mL in the experiment with E. coli Neumann; 8 µg/mL (≈ 25.1 µM) in the experiment on Staph 9TV. The compound also came in with an MIC in the experiment on Psdm. Bonn of over 32 µg/mL.
`CC(=O)NC[C@H]1CN(c2ccc(-c3ccc(C)cc3)s2)C(=O)O1` [Example 39, (5S)-3-{2[5-(4-Methylphenyl)]thiophenyl}-5-acetyl-aminomethyl-oxazolidin-2-one]: the MIC against Staph 48N is 2 µg/mL (≈ 6.05 µM); in the experiment on Staph 25701 it was 2 µg/mL (≈ 6.05 µM); in the experiment with Staph 133 it was 2 µg/mL (≈ 6.05 µM); in the experiment with Klebs. 57 USA, over 32 µg/mL; in the experiment on E. coli Neumann, over 32 µg/mL; in the experiment with Staph 9TV it was 1 µg/mL (≈ 3.03 µM). Moreover, the MIC in the experiment with Psdm. Bonn is over 32 µg/mL.
`CC(=O)NC[C@H]1CN(c2ccc(-c3ccccc3C=O)s2)C(=O)O1` [Example 40, (5S)-3-{2[5-(2-Formylphenyl)]thiophenyl}-5-acetylamino-methyl-oxazolidin-2-one]: the MIC is 4 µg/mL (≈ 11.6 µM) against Staph 48N; 2 µg/mL (≈ 5.81 µM) against Staph 25701; 2 µg/mL (≈ 5.81 µM) against Staph 133; over 32 µg/mL in the experiment on Klebs. 57 USA; over 32 µg/mL against E. coli Neumann; 1 µg/mL (≈ 2.9 µM) against Staph 9TV. The compound further returned an MIC with Psdm. Bonn of over 32 µg/mL.
On to `CC(=O)NC[C@H]1CN(c2ccc(-c3csc(C=O)c3)s2)C(=O)O1` [Example 41], for which the MIC with Staph 48N was 2 µg/mL (≈ 5.71 µM); in the experiment on Staph 25701, 2 µg/mL (≈ 5.71 µM); against Staph 133, 2 µg/mL (≈ 5.71 µM); against Klebs. 57 USA, over 32 µg/mL; with E. coli Neumann it was over 32 µg/mL; against Staph 9TV it was 2 µg/mL (≈ 5.71 µM). Moreover, the MIC against Psdm. Bonn was over 32 µg/mL.
Take `CC(=O)NC[C@H]1CN(c2ccc(-c3ccccc3)s2)C(=O)O1` [Example 42]: the MIC against Staph 48N is 4 µg/mL (≈ 12.6 µM); with Staph 25701 it was 4 µg/mL (≈ 12.6 µM); against Staph 133 it was 2 µg/mL (≈ 6.32 µM); in the experiment on Klebs. 57 USA, over 32 µg/mL; against E. coli Neumann, over 32 µg/mL; against Staph 9TV, 2 µg/mL (≈ 6.32 µM). In addition, in the experiment with Psdm. Bonn, the minimum inhibitory concentration (MIC) was over 32 µg/mL.
Regarding `CC(=O)NC[C@H]1CN(c2ccc(-c3cccc(C=O)c3)s2)C(=O)O1` [Example 43], the MIC with Staph 48N was 1 µg/mL (≈ 2.9 µM); in the experiment on Staph 25701, 1 µg/mL (≈ 2.9 µM); against Staph 133, 1 µg/mL (≈ 2.9 µM); in the experiment on Klebs. 57 USA it was over 32 µg/mL; with E. coli Neumann, over 32 µg/mL; in the experiment on Staph 9TV, 1 µg/mL (≈ 2.9 µM). In the experiment on Psdm. Bonn, this compound returned an MIC of over 32 µg/mL.
Regarding `CC(=O)NC[C@H]1CN(c2ccc(-c3ccc(C=O)cc3)s2)C(=O)O1` [Example 44], the MIC against Staph 48N is 0.25 µg/mL (≈ 0.726 µM); against Staph 25701, 0.25 µg/mL (≈ 0.726 µM); against Staph 133, 0.25 µg/mL (≈ 0.726 µM); in the experiment with Klebs. 57 USA, over 32 µg/mL; in the experiment with E. coli Neumann, over 32 µg/mL; against Staph 9TV it was 0.25 µg/mL (≈ 0.726 µM). Further, the MIC against Psdm. Bonn is over 32 µg/mL.
Regarding `CC(=O)NC[C@H]1CN(c2ccc(-c3ccc(C(C)=O)cc3)s2)C(=O)O1` [Example 46], the minimal inhibitory concentration (MIC) with Staph 48N is 2 µg/mL (≈ 5.58 µM); in the experiment with Staph 25701, 2 µg/mL (≈ 5.58 µM); against Staph 133 it was 2 µg/mL (≈ 5.58 µM); with Klebs. 57 USA it was over 32 µg/mL; against E. coli Neumann, over 32 µg/mL; against Staph 9TV, 0.5 µg/mL (≈ 1.4 µM). Besides, in the experiment with Psdm. Bonn, the minimum inhibitory concentration (MIC) was over 32 µg/mL.
For the compound `CC(=O)NC[C@H]1CN(c2ccc(-c3ccc(F)cc3)s2)C(=O)O1` [Example 51], the MIC with Staph 48N is 2 µg/mL (≈ 5.98 µM); in the experiment with Staph 25701 it was 2 µg/mL (≈ 5.98 µM); against Staph 133, 4 µg/mL (≈ 12 µM); in the experiment with Klebs. 57 USA, over 32 µg/mL; against E. coli Neumann it was over 32 µg/mL; against Staph 9TV, 1 µg/mL (≈ 2.99 µM). This compound also registered an MIC against Psdm. Bonn of over 32 µg/mL.
Regarding `CC(=O)NC[C@H]1CN(c2ccc(-c3cccc(N)c3)s2)C(=O)O1` [Example 56], the MIC was 4 µg/mL (≈ 12.1 µM) in the experiment with Staph 48N; 4 µg/mL (≈ 12.1 µM) with Staph 25701; 8 µg/mL (≈ 24.1 µM) in the experiment on Staph 133; over 32 µg/mL with Klebs. 57 USA; over 32 µg/mL against E. coli Neumann; 4 µg/mL (≈ 12.1 µM) in the experiment on Staph 9TV. In the experiment on Psdm. Bonn, the MIC is over 32 µg/mL.
With `CC(=O)NC[C@H]1CN(c2cc(-c3cccc(C=O)c3)cs2)C(=O)O1` [Example 59], the MIC is 2 µg/mL (≈ 5.81 µM) against Staph 48N; 2 µg/mL (≈ 5.81 µM) in the experiment with Staph 25701; 4 µg/mL (≈ 11.6 µM) with Staph 133; over 32 µg/mL against Klebs. 57 USA; over 32 µg/mL in the experiment on E. coli Neumann; 1 µg/mL (≈ 2.9 µM) with Staph 9TV. The compound also registered an MIC in the experiment on Psdm. Bonn of over 32 µg/mL.
Turning to `CC(=O)NC[C@H]1CN(c2cc(-c3ccc(C=O)cc3)cs2)C(=O)O1` [Example 60], the MIC in the experiment on Staph 48N was 8 µg/mL (≈ 23.2 µM); in the experiment with Staph 25701 it was 8 µg/mL (≈ 23.2 µM); in the experiment on Staph 133, 16 µg/mL (≈ 46.5 µM); in the experiment on Klebs. 57 USA, over 32 µg/mL; against E. coli Neumann, over 32 µg/mL; against Staph 9TV it was 8 µg/mL (≈ 23.2 µM). Also, the MIC against Psdm. Bonn is over 32 µg/mL.
As to `CC(=O)NC[C@H]1CN(c2ccc(-c3ccc(CO)cc3)s2)C(=O)O1` [Example 101, (5S)-3-(2-[5-(4-hydroxymethyl)phenyl]thiophenyl)-5-acetylamino-methyl-oxazolidin-2-one], the MIC in the experiment on Staph 48N is 2 µg/mL (≈ 5.77 µM); against Staph 25701, 2 µg/mL (≈ 5.77 µM); in the experiment with Staph 133, 2 µg/mL (≈ 5.77 µM); with Klebs. 57 USA, over 32 µg/mL; in the experiment on E. coli Neumann it was over 32 µg/mL; against Staph 9TV, 2 µg/mL (≈ 5.77 µM). In the experiment on Psdm. Bonn, this compound had an MIC of over 32 µg/mL.
With `CC(=O)NC[C@H]1CN(c2ccc(-c3cccc(CO)c3)s2)C(=O)O1` [Example 102], the MIC in the experiment with Staph 48N is 8 µg/mL (≈ 23.1 µM); in the experiment on Staph 25701, 8 µg/mL (≈ 23.1 µM); against Staph 133, 8 µg/mL (≈ 23.1 µM); with Klebs. 57 USA it was over 32 µg/mL; in the experiment with E. coli Neumann, over 32 µg/mL; with Staph 9TV it was 8 µg/mL (≈ 23.1 µM). In addition, the MIC against Psdm. Bonn was over 32 µg/mL.
